Row | melting point | Structure (SMILES)
1 | 127 °C | Cn1cc(C(=O)NC2CC2c2ccc(Cl)cc2)c(C(F)F)n1 (centres unmarked) [Compound 1.001, 3-difluoromethyl-1-methyl-1H-pyrazole-4-carboxylic acid [2-(4-chlorophenyl)-cyclopropyl]-amide]
2 | 204 to 206 °C | O=C(N[C@@H]1C[C@]1(F)c1ccc(Cl)cc1)c1ccccc1C(F)(F)F [Compound 6.004, N-[(1R,2S)-2-(4-chlorophenyl)-2-fluoro-cyclopropyl]-2-trifluoromethyl-benzamide]
